Experiments:
[1] = biological target: T1, ATP-binding cassette sub-family C member 2 (Homo sapiens, UniProt Q92887); assay: TP_TRANSPORTER: Western blot, HepG2 cells; type: functional, cell-based
[2] = biological target: T1, ATP-binding cassette sub-family C member 2; assay: TP_TRANSPORTER: RT-PCR in HepG2 cells; type: functional, cell-based

T1 sequence (Q92887 whole entry): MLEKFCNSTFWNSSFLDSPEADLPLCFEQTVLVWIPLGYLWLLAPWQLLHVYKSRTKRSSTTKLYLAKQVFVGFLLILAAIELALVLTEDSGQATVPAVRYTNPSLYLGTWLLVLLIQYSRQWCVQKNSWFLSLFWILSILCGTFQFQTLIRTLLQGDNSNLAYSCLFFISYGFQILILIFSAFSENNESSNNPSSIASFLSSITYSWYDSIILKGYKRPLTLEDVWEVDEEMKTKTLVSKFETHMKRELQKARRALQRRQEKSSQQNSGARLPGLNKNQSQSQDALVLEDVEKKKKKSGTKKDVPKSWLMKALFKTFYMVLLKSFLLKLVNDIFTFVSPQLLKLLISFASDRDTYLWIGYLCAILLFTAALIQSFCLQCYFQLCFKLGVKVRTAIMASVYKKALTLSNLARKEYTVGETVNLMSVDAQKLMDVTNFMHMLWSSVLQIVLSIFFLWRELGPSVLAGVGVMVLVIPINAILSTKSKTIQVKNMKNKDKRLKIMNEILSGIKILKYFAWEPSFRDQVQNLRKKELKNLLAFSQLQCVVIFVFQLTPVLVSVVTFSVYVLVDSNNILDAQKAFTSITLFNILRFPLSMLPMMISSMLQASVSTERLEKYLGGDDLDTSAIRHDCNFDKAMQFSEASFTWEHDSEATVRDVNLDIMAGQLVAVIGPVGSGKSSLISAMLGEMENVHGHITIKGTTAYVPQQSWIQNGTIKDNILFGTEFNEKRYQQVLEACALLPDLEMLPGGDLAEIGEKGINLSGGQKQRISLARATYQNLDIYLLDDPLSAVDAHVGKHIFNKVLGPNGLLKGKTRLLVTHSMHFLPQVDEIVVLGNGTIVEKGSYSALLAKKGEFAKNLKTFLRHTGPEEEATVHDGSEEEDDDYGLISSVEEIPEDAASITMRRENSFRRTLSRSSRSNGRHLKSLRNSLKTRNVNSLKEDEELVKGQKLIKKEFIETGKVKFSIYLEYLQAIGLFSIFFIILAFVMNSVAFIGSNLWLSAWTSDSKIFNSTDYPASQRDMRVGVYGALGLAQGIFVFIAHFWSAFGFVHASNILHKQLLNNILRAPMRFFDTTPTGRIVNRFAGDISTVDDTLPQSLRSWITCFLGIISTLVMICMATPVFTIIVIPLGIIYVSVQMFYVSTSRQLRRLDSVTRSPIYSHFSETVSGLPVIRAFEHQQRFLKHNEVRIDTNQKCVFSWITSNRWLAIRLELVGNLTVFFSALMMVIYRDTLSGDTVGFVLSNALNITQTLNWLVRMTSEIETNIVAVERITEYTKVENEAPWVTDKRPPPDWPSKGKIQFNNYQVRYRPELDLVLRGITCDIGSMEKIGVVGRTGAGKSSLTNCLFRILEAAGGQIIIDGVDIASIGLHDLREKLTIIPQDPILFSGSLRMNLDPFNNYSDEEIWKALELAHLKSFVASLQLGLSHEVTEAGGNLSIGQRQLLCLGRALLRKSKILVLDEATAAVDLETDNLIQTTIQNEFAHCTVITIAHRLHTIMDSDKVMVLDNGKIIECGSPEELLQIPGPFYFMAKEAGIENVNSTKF

Structure (SMILES)	Activity [1]	Activity [2]
CO[C@H]1/C=C/O[C@@]2(C)Oc3c(C)c(O)c4c(O)c(c(/C=N/N5CCN(C)CC5)c(O)c4c3C2=O)NC(=O)/C(C)=C\C=C\[C@H](C)[C@H](O)[C@@H](C)[C@@H](O)[C@@H](C)[C@H](OC(C)=O)[C@@H]1C [RIFAMPIN]	inducer [+]	inducer [+]
O[As](O)O [TRIHYDROXYARSENITE(III)]	inducer [+]	inducer [+]
Clc1ccccc1C(c1ccccc1)(c1ccccc1)n1ccnc1 [CLOTRIMAZOLE]	inducer [+]	inducer [+]
CC(C)(C)c1cc(O)ccc1O [E319]	inducer [+]	inducer [+]
